Assay results as given in patent publication US20100331185A1, “Herbicidal Compositions of Lithium Glyphosate and Adjuvants” (COGNIS IP […], priority 2007, published 2010).
Like-named read-outs stand apart in the source and are kept apart here.

Key:
[1] = Method: 35.2 g of glyphosate tech (96%, 0.208 mol) was mixed with 20 g water in a flask. 8.4 g of LiOH monohydrate was added to this mixture with good mixing.
[2] = acid form, in water at 25° C.; cited from earlier work

Row | Compound | product pH (1%) [1] | Li glyphosate Solubility ([1]; solvent: Agnique KE 3658) | Li glyphosate Solubility ([1]; solvent: Agnique ME 610) | Li glyphosate Solubility ([1]; solvent: Exxsol D-110) | Li glyphosate Solubility ([1]; solvent: N-Methyl pyrrolidone) | Li glyphosate Solubility ([1]; solvent: Water) | solubility in water [2]
1 | O=C(O)CNCP(=O)([O-])O.[Li+] [Li glyphosate, lithium glyphosate] | 4.98 | <100 mg/mL | <50 mg/mL | <50 mg/mL | <150 mg/mL | <200 mg/mL | 
2 | O=C(O)CNCP(=O)(O)O [glyphosate] |  |  |  |  |  |  | 0.16 % by weight
